Assay results from patent publication US20250066339A1, “HETEROCYCLE-SUBSTITUTED AROMATIC COMPOUND, METHOD FOR PREPARING SAME, HERBICIDAL COMPOSITION, AND USE THEREOF” (QINGDAO KINGAGROOT CHEMICAL COMPOUND CO., LTD., priority 2022, published 2025).

Assays:
Assay in all cases: Post-emergence test on weeds
Type in all cases: in vivo
Set-up in all cases: key: Level 10: completely dead; Level 9: growth control rate greater than or equal to 90% and less than 100%; Level 8: growth control rate greater than or equal to 80% and less than 90%; Level 7: growth control rate greater than or equal to 70% and less than 80%; Level 6: growth control rate greater than or equal to 60% and less than 70%; Level 5: growth control rate greater than or equal to 50% and less than 60%; Level 4: growth control rate greater than or equal to 40% and less than 50%; Level 3: growth control rate greater than or equal to 30% and less than 40%; Level 2: growth control rate greater than or equal to 20% and less than 30%; Level 1: growth control rate less than 20%; Level 0: no effect
Details in all cases: 3 weeks after application, fresh weight control rate
Amaranthus retroflexus = system: Amaranthus retroflexus
Text: (§1) The activity level criteria for plant damage (i.e., growth control rate) are as follows: • Level 10: completely dead; • Level 9: growth control rate greater than or equal to 90% and less than 100%; • Level 8: growth control rate greater than or equal to 80% and less than 90%; • Level 7: growth control rate greater than or equal to 70% and less than 80%; • Level 6: growth control rate greater than or equal to 60% and less than 70%; • Level 5: growth control rate greater than or equal to 50% and less than 60%; • Level 4: growth control rate greater than or equal to 40% and less than 50%; • Level 3: growth control rate greater than or equal to 30% and less than 40%; • Level 2: growth control rate greater than or equal to 20% and less than 30%; • Level 1: growth control rate less than 20%; • Level 0: no effect.
(§2) The above growth control rates are fresh weight control rates.
(§3) Monocotyledonous and dicotyledonous weed seeds (Descurainia sophia, Capsella bursa-pastoris, Abutilon theophrasti, Galium spurium, Stellaria media, Lithospermum arvense, Rorippa indica, Alopecurus aequalis, Alopecurus japonicus, Eleusine indica, Beckmannia syzigachne, Sclerochloa dura, Erigeron canadensis, Phleum paniculatum, Veronica polita, Bromus japonicus, Aegilops tauschii, Phalaris arundinacea, Amaranthus retroflexus, Chenopodium, Commelina communis, Cichorium endivia, Convolvulus arvensis, Cirsium arvense, Solanum nigrum, Acalypha australis, Digitaria sanguinalis, Echinochloa crus-galli, Setaria viridis, Setaria pumila, Leptochloa chinensis, Monochoria vaginalis, Sagittaria trifolia, Schoenoplectiella juncoides, Cyperus rotundus, Cyperus iria, Cyperus difformis, Fimbristylis, Portulaca oleracea, Xanthium sibiricum, Ipomoea nil, Eschenbachia japonica, etc.) and major crop seeds (wheat, maize, paddy rice, soybean, cotton, oilseed rape, millet, sorghum, potato, sesame, castor plant, etc.) were placed in plastic pots filled with soil and then covered with 0.5-2 cm of soil to allow them to grow in a favorable greenhouse environment. Two weeks after sowing, the test plants were treated at the stage of 2-3 leaves. The test compounds of the present invention were individually dissolved with acetone, then added with Tween® 80, with 1.5 L/ha of methyl oleate emulsifiable concentrate as a synergist, diluted into solutions of certain concentrations using certain amount of water, and sprayed to the plants using a spray tower. After drug application, the experimental results on weeds were collected after 3 weeks of cultivation in a greenhouse. The compounds were applied at 500, 250, 125, 60, 15, and 7.5 g a.i./ha in triplicate, and the results were averaged.

Echinochloa crus-galli = system: Echinochloa crus-galli
Text: as §1, §2, §3

Setaria viridis = system: Setaria viridis
Text: as §1, §2, §3

Abutilon theophrasti = system: Abutilon theophrasti
Text: as §1, §2, §3

Veronica polita = system: Veronica polita
Text: as §1, §2, §3

Digitaria sanguinalis = system: Digitaria sanguinalis
Text: as §1, §2, §3

CC1(C(=O)OC2CCCC2)CC(c2cc(-c3ncc(C(F)(F)F)cc3Cl)c(F)cc2Cl)=NO1 (stereo not drawn) [Compound 43]
10: activity level (growth control rate) Amaranthus retroflexus (Amaranthus retroflexus; 15 g a.i./ha) | activity level (growth control rate) Echinochloa crus-galli (Echinochloa crus-galli; 15 g a.i./ha) | activity level (growth control rate) Setaria viridis (Setaria viridis; 15 g a.i./ha) | activity level (growth control rate) Abutilon theophrasti (Abutilon theophrasti; 15 g a.i./ha) | activity level (growth control rate) Veronica polita (Veronica polita; 15 g a.i./ha) | activity level (growth control rate) Digitaria sanguinalis (Digitaria sanguinalis; 15 g a.i./ha)

CC1(C(=O)OCCF)CC(c2cc(-c3ncc(C(F)(F)F)cc3Cl)c(F)cc2Cl)=NO1 (stereo not drawn) [Compound 44]
10: activity level (growth control rate) Amaranthus retroflexus (Amaranthus retroflexus; 15 g a.i./ha) | activity level (growth control rate) Echinochloa crus-galli (Echinochloa crus-galli; 15 g a.i./ha) | activity level (growth control rate) Setaria viridis (Setaria viridis; 15 g a.i./ha) | activity level (growth control rate) Abutilon theophrasti (Abutilon theophrasti; 15 g a.i./ha) | activity level (growth control rate) Veronica polita (Veronica polita; 15 g a.i./ha) | activity level (growth control rate) Digitaria sanguinalis (Digitaria sanguinalis; 15 g a.i./ha)

CC1(C(=O)OCC(F)(F)F)CC(c2cc(-c3ncc(C(F)(F)F)cc3Cl)c(F)cc2Cl)=NO1 (stereo not drawn) [Compound 45]
10: activity level (growth control rate) Amaranthus retroflexus (Amaranthus retroflexus; 60 g a.i./ha) | activity level (growth control rate) Echinochloa crus-galli (Echinochloa crus-galli; 60 g a.i./ha) | activity level (growth control rate) Setaria viridis (Setaria viridis; 60 g a.i./ha) | activity level (growth control rate) Abutilon theophrasti (Abutilon theophrasti; 60 g a.i./ha) | activity level (growth control rate) Veronica polita (Veronica polita; 60 g a.i./ha) | activity level (growth control rate) Digitaria sanguinalis (Digitaria sanguinalis; 60 g a.i./ha)

COCOC(=O)C1(C)CC(c2cc(-c3ncc(C(F)(F)F)cc3Cl)c(F)cc2Cl)=NO1 (stereo not drawn) [Compound 49]
10: activity level (growth control rate) Amaranthus retroflexus (Amaranthus retroflexus; 15 g a.i./ha) | activity level (growth control rate) Echinochloa crus-galli (Echinochloa crus-galli; 15 g a.i./ha) | activity level (growth control rate) Setaria viridis (Setaria viridis; 15 g a.i./ha) | activity level (growth control rate) Abutilon theophrasti (Abutilon theophrasti; 15 g a.i./ha) | activity level (growth control rate) Veronica polita (Veronica polita; 15 g a.i./ha) | activity level (growth control rate) Digitaria sanguinalis (Digitaria sanguinalis; 15 g a.i./ha)

CSCOC(=O)C1(C)CC(c2cc(-c3ncc(C(F)(F)F)cc3Cl)c(F)cc2Cl)=NO1 (stereo not drawn) [Compound 50]
10: activity level (growth control rate) Amaranthus retroflexus (Amaranthus retroflexus; 15 g a.i./ha) | activity level (growth control rate) Echinochloa crus-galli (Echinochloa crus-galli; 15 g a.i./ha) | activity level (growth control rate) Setaria viridis (Setaria viridis; 15 g a.i./ha) | activity level (growth control rate) Abutilon theophrasti (Abutilon theophrasti; 15 g a.i./ha) | activity level (growth control rate) Veronica polita (Veronica polita; 15 g a.i./ha) | activity level (growth control rate) Digitaria sanguinalis (Digitaria sanguinalis; 15 g a.i./ha)

CC(C#N)OC(=O)C1(C)CC(c2cc(-c3ncc(C(F)(F)F)cc3Cl)c(F)cc2Cl)=NO1 (stereo not drawn) [Compound 51]
10: activity level (growth control rate) Amaranthus retroflexus (Amaranthus retroflexus; 15 g a.i./ha) | activity level (growth control rate) Echinochloa crus-galli (Echinochloa crus-galli; 15 g a.i./ha) | activity level (growth control rate) Setaria viridis (Setaria viridis; 15 g a.i./ha) | activity level (growth control rate) Abutilon theophrasti (Abutilon theophrasti; 15 g a.i./ha) | activity level (growth control rate) Veronica polita (Veronica polita; 15 g a.i./ha) | activity level (growth control rate) Digitaria sanguinalis (Digitaria sanguinalis; 15 g a.i./ha)

CC(C)=NOC(=O)C1(C)CC(c2cc(-c3ncc(C(F)(F)F)cc3Cl)c(F)cc2Cl)=NO1 (stereo not drawn) [Compound 65]
10: activity level (growth control rate) Amaranthus retroflexus (Amaranthus retroflexus; 15 g a.i./ha) | activity level (growth control rate) Echinochloa crus-galli (Echinochloa crus-galli; 15 g a.i./ha) | activity level (growth control rate) Setaria viridis (Setaria viridis; 15 g a.i./ha) | activity level (growth control rate) Abutilon theophrasti (Abutilon theophrasti; 15 g a.i./ha) | activity level (growth control rate) Veronica polita (Veronica polita; 15 g a.i./ha) | activity level (growth control rate) Digitaria sanguinalis (Digitaria sanguinalis; 15 g a.i./ha)

C/C(=N\OC(=O)C1(C)CC(c2cc(-c3ncc(C(F)(F)F)cc3Cl)c(F)cc2Cl)=NO1)C(F)(F)F (stereo not drawn) [Compound 67]
10: activity level (growth control rate) Amaranthus retroflexus (Amaranthus retroflexus; 60 g a.i./ha) | activity level (growth control rate) Echinochloa crus-galli (Echinochloa crus-galli; 60 g a.i./ha) | activity level (growth control rate) Setaria viridis (Setaria viridis; 60 g a.i./ha) | activity level (growth control rate) Abutilon theophrasti (Abutilon theophrasti; 60 g a.i./ha) | activity level (growth control rate) Veronica polita (Veronica polita; 60 g a.i./ha) | activity level (growth control rate) Digitaria sanguinalis (Digitaria sanguinalis; 60 g a.i./ha)

COC/C(C)=N/OC(=O)C1(C)CC(c2cc(-c3ncc(C(F)(F)F)cc3Cl)c(F)cc2Cl)=NO1 (stereo not drawn) [Compound 68]
10: activity level (growth control rate) Amaranthus retroflexus (Amaranthus retroflexus; 60 g a.i./ha) | activity level (growth control rate) Echinochloa crus-galli (Echinochloa crus-galli; 60 g a.i./ha) | activity level (growth control rate) Setaria viridis (Setaria viridis; 60 g a.i./ha) | activity level (growth control rate) Abutilon theophrasti (Abutilon theophrasti; 60 g a.i./ha) | activity level (growth control rate) Veronica polita (Veronica polita; 60 g a.i./ha) | activity level (growth control rate) Digitaria sanguinalis (Digitaria sanguinalis; 60 g a.i./ha)

CCO/C(C)=N/OC(=O)C1(C)CC(c2cc(-c3ncc(C(F)(F)F)cc3Cl)c(F)cc2Cl)=NO1 (stereo not drawn) [Compound 69]
10: activity level (growth control rate) Amaranthus retroflexus (Amaranthus retroflexus; 60 g a.i./ha) | activity level (growth control rate) Echinochloa crus-galli (Echinochloa crus-galli; 60 g a.i./ha) | activity level (growth control rate) Setaria viridis (Setaria viridis; 60 g a.i./ha) | activity level (growth control rate) Abutilon theophrasti (Abutilon theophrasti; 60 g a.i./ha) | activity level (growth control rate) Veronica polita (Veronica polita; 60 g a.i./ha) | activity level (growth control rate) Digitaria sanguinalis (Digitaria sanguinalis; 60 g a.i./ha)

CCOC(=O)/C(C)=N/OC(=O)C1(C)CC(c2cc(-c3ncc(C(F)(F)F)cc3Cl)c(F)cc2Cl)=NO1 (stereo not drawn) [Compound 70]
10: activity level (growth control rate) Amaranthus retroflexus (Amaranthus retroflexus; 60 g a.i./ha) | activity level (growth control rate) Echinochloa crus-galli (Echinochloa crus-galli; 60 g a.i./ha) | activity level (growth control rate) Setaria viridis (Setaria viridis; 60 g a.i./ha) | activity level (growth control rate) Abutilon theophrasti (Abutilon theophrasti; 60 g a.i./ha) | activity level (growth control rate) Veronica polita (Veronica polita; 60 g a.i./ha) | activity level (growth control rate) Digitaria sanguinalis (Digitaria sanguinalis; 60 g a.i./ha)

CC1(C(=O)ON=C(c2ccccc2)c2ccccc2)CC(c2cc(-c3ncc(C(F)(F)F)cc3Cl)c(F)cc2Cl)=NO1 (stereo not drawn) [Compound 71]
10: activity level (growth control rate) Amaranthus retroflexus (Amaranthus retroflexus; 60 g a.i./ha) | activity level (growth control rate) Echinochloa crus-galli (Echinochloa crus-galli; 60 g a.i./ha) | activity level (growth control rate) Setaria viridis (Setaria viridis; 60 g a.i./ha) | activity level (growth control rate) Abutilon theophrasti (Abutilon theophrasti; 60 g a.i./ha) | activity level (growth control rate) Veronica polita (Veronica polita; 60 g a.i./ha) | activity level (growth control rate) Digitaria sanguinalis (Digitaria sanguinalis; 60 g a.i./ha)

CC1(C(=O)O/N=C/c2ccco2)CC(c2cc(-c3ncc(C(F)(F)F)cc3Cl)c(F)cc2Cl)=NO1 (stereo not drawn) [Compound 72]
10: activity level (growth control rate) Amaranthus retroflexus (Amaranthus retroflexus; 60 g a.i./ha) | activity level (growth control rate) Echinochloa crus-galli (Echinochloa crus-galli; 60 g a.i./ha) | activity level (growth control rate) Setaria viridis (Setaria viridis; 60 g a.i./ha) | activity level (growth control rate) Abutilon theophrasti (Abutilon theophrasti; 60 g a.i./ha) | activity level (growth control rate) Veronica polita (Veronica polita; 60 g a.i./ha) | activity level (growth control rate) Digitaria sanguinalis (Digitaria sanguinalis; 60 g a.i./ha)
